Measurements taken from PMC8026785, “The pharmacokinetics of [^18F]UCB-H revisited in the healthy non-human primate brain” (EJNMMI Research, 2021).
Where “and” joins values, the source holds several entries; their conditions need not be identical. Equal values may be shown once.

Biological target: T1, SV2A (Macaca fascicularis, UniProt Q4R4X3)
T1 construct: The current study evaluates [^18F]UCB-H pharmacokinetics in healthy NHPs; from tissue; host or cells: brain of living healthy cynomolgus monkeys (in vivo PET)
Experiment: Brain PET kinetic modelling (1TCM, 2TCM, 2TCM-c, Logan), test-retest
Format: in vivo, cynomolgus monkeys (Macaca fascicularis)
Experimental: All four non-human primates (NHP) underwent a 2-h (2 h) test and retest PET scan; two NHP underwent an additional 4-h (4 h) retest PET scan. Three NHP underwent one 4-h (4 h) displacement PET scan. Arterial blood sampling was performed during test and retest scans with PET imaging spaced by at least 3 weeks between each scan. To this end, the femoral artery opposite to the saphenous vein used for radioligand injection was cannulated. For the 2-h (2 h) scans, we collected in total 28 blood samples of 1 mL: 16 samples during the first 5 min followed by […] every 5 min and […] every 10 min. For the 4 h scans, we collected an additional 6 samples every 20 min during the last two hours (34 samples in total). Larger samples (2 – 3 mL) were collected at 5, 15, 30, 60, 90, 120 min (2 h) and at 180, 240 min (4 h) for metabolite analysis. Displacement of [^18F]UCB-H was done by intravenous (IV) administration 90 min after [^18F]UCB-H injection of a bolus of 30 mg/kg LEV, or of 80 µg/kg (≈250 nmol/kg) or 5 mg/kg (≈15 µmol/kg) of cold [^19F]-UCB-H. Full experimental design of all NHP is outlined in Additional file 1: Table 1.
PET imaging was performed on the microPET FOCUS220 (Siemens) under standard anesthesia and monitoring procedures. Data acquisition started with the IV bolus injection of [^18F]UCB-H (32.9 ± 1.0 MBq/kg, 0.35 ± 0.07 µg/kg). Dynamic PET images were reconstructed using standard OSEM-2D algorithms while correcting for radioactive decay, scatter, attenuation and detectors inhomogeneity, which were measured prior to PET scanning using respectively ^57Co and ^68Ge external sources.
PET image analysis was performed using PMOD software version 3.8 (PMOD Technologies Ltd., Zurich, Suisse). After individual co-registration of PET-MR images, a cynomolgus atlas published by Ballanger and coworkers was normalized to PET images to extract time activity curves in different brain regions. Volumes of interest (VOI) were cerebral white matter (16.7 cm^3), striatum (0.24 cm^3), thalamus (0.89 cm^3), cerebellum (3.83 cm^3), frontal—(2.50 cm^3), parietal—(5.35 cm^3), and temporal (8.22 cm^3) cortex, and whole brain (72.2 cm^3) as a composite region of all regions in the atlas. [^18F]UCB-H pharmacokinetics were evaluated by analyzing the time activity curves of the test- and retest scans using 1- and 2-tissue compartment models (unconstrained and constrained with global K1/k2 coupled fit across all regions, further referred to as 2TCM and 2TCM-c), and Logan graphical analysis with a fixed t* at 60 min [33] using the arterial plasma input function corrected for radio-metabolites to derive the volume of distribution in each region. Percentage standard error (%SE) was estimated from the theoretical parameter covariance matrix. Only reliable estimates (%SE less than 25%) were included in the current analyses. For the three drug studies, percent displacement of the total activity in the whole brain was estimated relative to an average baseline constructed from the two 4 h baseline studies. Briefly, Standardized Uptake Value (SUV) time activity curves (TACs) were calculated for the two baseline and the three displacement studies. Then, each curve was normalized to the SUV at t = 90 min, corresponding to the timeframe immediately before the administration of the drugs in the displacement studies. Baseline curves were averaged and the percent displacement of total activity was calculated as (baseline-displacement)/baseline at a given time post drug administration (see “Results”).
Statistical analysis was performed using R software (version 3.3.1.). Plasma, intact parent fraction and time activity curves were statistically compared between subjects using a one-factor variance analysis. Absolute Test–Retest variability (aTRV) of PET quantification parameters was calculated as ABS(test—retest) / AVERAGE(test, retest). […]

[1] = Cerebellum, Retest, individual NHP
[2] = Cerebellum, Test, individual NHP
[3] = Frontal Cortex, Retest, individual NHP
[4] = Frontal Cortex, Test, individual NHP

T1 sequence (Q4R4X3 whole entry): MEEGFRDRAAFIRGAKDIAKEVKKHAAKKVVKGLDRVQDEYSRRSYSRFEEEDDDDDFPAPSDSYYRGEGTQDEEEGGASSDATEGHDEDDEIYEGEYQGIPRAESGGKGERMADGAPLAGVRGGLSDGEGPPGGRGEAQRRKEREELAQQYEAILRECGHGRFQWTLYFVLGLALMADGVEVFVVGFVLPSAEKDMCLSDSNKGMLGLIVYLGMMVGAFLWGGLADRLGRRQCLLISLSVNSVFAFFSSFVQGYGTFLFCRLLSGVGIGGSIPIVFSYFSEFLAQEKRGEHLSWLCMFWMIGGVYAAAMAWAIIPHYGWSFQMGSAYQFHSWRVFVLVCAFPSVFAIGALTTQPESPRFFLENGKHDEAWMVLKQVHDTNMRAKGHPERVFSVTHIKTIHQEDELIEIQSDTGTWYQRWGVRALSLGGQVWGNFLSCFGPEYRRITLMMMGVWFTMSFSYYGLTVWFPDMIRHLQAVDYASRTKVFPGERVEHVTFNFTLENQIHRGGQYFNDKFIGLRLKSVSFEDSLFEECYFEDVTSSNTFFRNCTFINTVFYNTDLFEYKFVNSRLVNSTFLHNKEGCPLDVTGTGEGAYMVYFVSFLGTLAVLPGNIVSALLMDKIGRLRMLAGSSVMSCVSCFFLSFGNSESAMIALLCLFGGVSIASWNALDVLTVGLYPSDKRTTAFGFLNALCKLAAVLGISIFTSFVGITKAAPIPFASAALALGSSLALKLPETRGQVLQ

aTRV of VT (1TCM): above 10% | ICC of VT, overall (2TCM-c): ~ 0.4 | aTRV of VT, overall (2TCM-c): ~ 17% | k3/k4 (surrogate of BPND), average (2TCM-c, average): 1.07 ± 0.02 and 1.1 | ICC of Logan (t* = 60) VT (Cerebellum): 0.32 | aTRV of Logan (t* = 60) VT (Cerebellum): 14% | VT (2TCM) [1]: 12.28 ml/cm^3 | k3/k4 (2TCM-c) [1]: 1.64 and 0.80 | VT (1TCM) (Cerebellum, Retest, mean): 10.4 mL/cm^3 | VT (2TCM) (Cerebellum, Retest, mean): 12.3 mL/cm^3 | VT (2TCM-c) (Cerebellum, Retest, mean): 13.3 mL/cm^3 | VT (Logan (t* = 60)) (Cerebellum, Retest, mean): 11.1 mL/cm^3 | k3/k4 (BPND) (2TCM-c) (Cerebellum, Retest, mean): 1.22 | VT (2TCM) [2]: 10.64 ml/cm^3 and 10.48 ml/cm^3 | VT (2TCM-c) [2]: 9.72 ml/cm^3 | k3/k4 (2TCM) [2]: 0.87 | k3/k4 (2TCM-c) [2]: 1.24 | VT (1TCM) (Cerebellum, Test, mean): 9.8 mL/cm^3 | VT (2TCM) (Cerebellum, Test, mean): 10.6 mL/cm^3 | VT (2TCM-c) (Cerebellum, Test, mean): 9.70 mL/cm^3 | VT (Logan (t* = 60)) (Cerebellum, Test, mean): 11.2 mL/cm^3 | k3/k4 (BPND) (2TCM-c) (Cerebellum, Test, mean): 1.24 | K1/k2 (2TCM) [3]: 12.79 ml/cm^3 and 10.20 ml/cm^3 | k3/k4 (2TCM-c) [3]: 2.10 and 1.07 and 0.78 | VT (2TCM) [4]: 12.58 ml/cm^3 and 19.94 ml/cm^3 | k3/k4 (2TCM) [4]: 0.56 | k3/k4 (2TCM-c) [4]: 1.63 and 1.51 and 0.61 | ICC of 2TCM-c VT (Frontal cortex): 0.84 | ICC of Logan (t* = 60) VT (Frontal cortex): 0.89 | aTRV of 2TCM-c VT (Frontal cortex): 11% | aTRV of Logan (t* = 60) VT (Frontal cortex): 11% | VT (1TCM) (Frontal cortex, Retest, mean): 13.8 mL/cm^3
Structure (SMILES): O=C1C[C@H](c2cc(F)c(F)c(F)c2)CN1Cc1ccncc1[18F] [[^18F]UCB-H]
K1 (2TCM) [1]: 0.62 ml/cm^3 /min and 0.26 ml/cm^3 /min and 0.34 ml/cm^3 /min and 0.36 ml/cm^3 /min | K1 (2TCM-c) [1]: 0.58 ml/cm^3 /min and 0.24 ml/cm^3 /min and 0.34 ml/cm^3 /min and 0.36 ml/cm^3 /min | K1/k2 (2TCM) [1]: 6.41 ml/cm^3 and 10.80 ml/cm^3 and 8.77 ml/cm^3 | K1/k2 (2TCM-c) [1]: 4.64 ml/cm^3 and 9.07 ml/cm^3 and 10.70 ml/cm^3 and 7.25 ml/cm^3 | VT (1TCM) [1]: 12.10 ml/cm^3 and 9.16 ml/cm^3 and 11.41 ml/cm^3 and 8.78 ml/cm^3 | VT (2TCM-c) [1]: 12.24 ml/cm^3 and 18.89 ml/cm^3 and 8.78 ml/cm^3 | VT (Logan) [1]: 12.38 ml/cm3 and 11.31 ml/cm3 and 11.82 ml/cm3 and 8.96 ml/cm3 | K1 (2TCM) [2]: 0.22 ml/cm^3 /min and 0.35 ml/cm^3 /min and 0.39 ml/cm^3 /min and 0.17 ml/cm^3 /min | K1 (2TCM-c) [2]: 0.23 ml/cm^3 /min and 0.33 ml/cm^3 /min and 0.39 ml/cm^3 /min and 0.17 ml/cm^3 /min | K1/k2 (2TCM) [2]: 5.68 ml/cm^3 and 6.39 ml/cm^3 and 10.81 ml/cm^3 and 6.69 ml/cm^3 | K1/k2 (2TCM-c) [2]: 4.35 ml/cm^3 and 8.22 ml/cm^3 and 10.99 ml/cm^3 and 7.86 ml/cm^3 | VT (1TCM) [2]: 8.70 ml/cm^3 and 9.24 ml/cm^3 and 12.07 ml/cm^3 and 9.02 ml/cm^3 | VT (Logan) [2]: 10.54 ml/cm3 and 10.32 ml/cm3 and 13.27 ml/cm3 and 10.85 ml/cm3 | K1 (2TCM) [3]: 0.45 ml/cm^3 /min and 0.42 ml/cm^3 /min and 0.31 ml/cm^3 /min and 0.37 ml/cm^3 /min | K1 (2TCM-c) [3]: 0.48 ml/cm^3 /min and 0.45 ml/cm^3 /min and 0.31 ml/cm^3 /min and 0.37 ml/cm^3 /min | K1/k2 (2TCM-c) [3]: 4.64 ml/cm^3 and 9.07 ml/cm^3 and 10.70 ml/cm^3 and 7.25 ml/cm^3 | VT (1TCM) [3]: 14.34 ml/cm^3 and 16.78 ml/cm^3 and 11.35 ml/cm^3 and 12.88 ml/cm^3 | VT (2TCM) [3]: 14.38 ml/cm^3 and 12.14 ml/cm^3 and 12.88 ml/cm^3 | VT (2TCM-c) [3]: 14.39 ml/cm^3 and 18.59 ml/cm^3 and 12.71 ml/cm^3 and 12.90 ml/cm^3 | VT (Logan) [3]: 14.05 ml/cm3 and 20.21 ml/cm3 and 11.72 ml/cm3 and 13.18 ml/cm3 | K1 (2TCM) [4]: 0.24 ml/cm^3 /min and 0.53 ml/cm^3 /min and 0.38 ml/cm^3 /min and 0.22 ml/cm^3 /min | K1 (2TCM-c) [4]: 0.25 ml/cm^3 /min and 0.55 ml/cm^3 /min and 0.38 ml/cm^3 /min and 0.22 ml/cm^3 /min | K1/k2 (2TCM) [4]: 8.05 ml/cm^3 and 13.17 ml/cm^3 and 10.76 ml/cm^3 and 11.87 ml/cm^3 | K1/k2 (2TCM-c) [4]: 4.35 ml/cm^3 and 8.22 ml/cm^3 and 10.99 ml/cm^3 and 7.86 ml/cm^3 | VT (1TCM) [4]: 10.97 ml/cm^3 and 18.41 ml/cm^3 and 12.04 ml/cm^3 and 13.68 ml/cm^3 | VT (2TCM-c) [4]: 11.41 ml/cm^3 and 18.77 ml/cm^3 and 14.10 ml/cm^3 | VT (Logan) [4]: 12.20 ml/cm3 and 19.36 ml/cm3 and 13.14 ml/cm3 and 15.28 ml/cm3
